Results on 24 compounds are retold here after US10428083B2, “Heterocyclylmethyl-thienouracile as antagonists of the adenosine-A2B-receptor” (BAYER PHARMA AKTIENGESELLSCHAFT, priority 2015, dated 2019).

pIC50: −log10 of the molar value. Read-outs that look alike come from different tables or passages of the source.

The target in the assay is human adenosine A2b receptor (Homo sapiens (Human), UniProt P29275). The experiment in a line: Cellular in vitro reporter gene test for A2b receptor activity (CHO-K1, CRE-luciferase, NECA stimulation). The assay is classed as cell-based. Here is the method: B-1. Cellular In Vitro Tests for Determining A2b Receptor Activity and Adenosine Receptor Selectivity
Chain of human adenosine A2b receptor (P29275 whole entry): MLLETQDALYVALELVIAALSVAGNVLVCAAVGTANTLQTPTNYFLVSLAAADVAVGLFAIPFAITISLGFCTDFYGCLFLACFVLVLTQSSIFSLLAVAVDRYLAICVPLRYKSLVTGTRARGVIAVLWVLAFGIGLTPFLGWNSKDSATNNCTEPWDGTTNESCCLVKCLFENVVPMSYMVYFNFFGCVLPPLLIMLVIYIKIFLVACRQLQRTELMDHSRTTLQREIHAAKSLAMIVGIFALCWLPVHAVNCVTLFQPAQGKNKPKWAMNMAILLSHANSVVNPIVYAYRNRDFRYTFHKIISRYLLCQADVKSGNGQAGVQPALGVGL
In the case of the A2a and A2b cell lines, this is a minimal promoter having a plurality of cAMP-responsive elements (CRE). Stimulation of the Gs-coupled A2b or A2a receptors by NECA ultimately leads, via formation of cAMP, to CRE-dependent induction of luciferase expression, which is detected 3 hours after the start of the incubation with NECA using a detection solution in a suitable luminometer. For testing the antagonists, initially, in a pre-experiment, the concentration of NECA which, at the test day in question, results in half-maximum stimulation of luciferase expression (EC50 concentration) is determined. By joint incubation of this EC50 concentration of NECA with the substances to be tested, it is possible to determine their antagonistic activity.
(Reporter assays use an easily measured gene product as a stand-in for the process of interest.)

The mark [1] stands for this setting: recombinant CHO-K1 cell line, CRE-luciferase reporter, antagonism of EC50 concentration of NECA, in some cases means of several determinations, rounded to two significant figures, read-out: A2b receptor IC50.

As to `COC(=O)N=C1NCCN1Cc1sc2c(c1C)c(=O)n(C(C)C)c(=O)n2CC1CCO1` (racemic) [Example 379, Methyl [1-{[3-isopropyl-5-methyl-1-(oxetan-2-ylmethyl)-2,4-dioxo-1,2,3,4-tetrahydrothieno[2,3-d]pyrimidin-6-yl]methyl}imidazolidin-2-ylidene]carbamate], the pIC50 (in general, the negative decadic logarithm of the IC50, by convention in mol/L) under setting [1] was 7.89.
Take `COC(=O)N=C1NCCN1Cc1sc2c(c1C)c(=O)n(C(C)C)c(=O)n2CC1CCCO1` (racemic) [Example 380, Methyl [1-{[3-isopropyl-5-methyl-2,4-dioxo-1-(tetrahydrofuran-2-ylmethyl)-1,2,3,4-tetrahydrothieno[2,3-d]pyrimidin-6-yl]methyl}imidazolidin-2-ylidene]carbamate]: the pIC50 under setting [1] was 7.92.
For `COC(=O)N=C1NCCN1Cc1sc2c(c1C)c(=O)n(CC(F)(F)F)c(=O)n2CC1CCO1` (racemic) [Example 383, Methyl [1-{[5-methyl-1-(oxetan-2-ylmethyl)-2,4-dioxo-3-(2,2,2-trifluoroethyl)-1,2,3,4-tetrahydrothieno[2,3-d]pyrimidin-6-yl]methyl}imidazolidin-2-ylidene]carbamate], under setting [1], the pIC50 was 7.82.
The same measure, in the same setting: the value for `COC(=O)N=C1NCCN1Cc1sc2c(c1C)c(=O)n(CC(F)(F)F)c(=O)n2CC1CCCO1` (racemic) [Example 384, Methyl [1-{[5-methyl-2,4-dioxo-1-(tetrahydrofuran-2-ylmethyl)-3-(2,2,2-trifluoroethyl)-1,2,3,4-tetrahydrothieno[2,3-d]pyrimidin-6-yl]methyl}imidazolidin-2-ylidene]carbamate] was 8.01; that for `COCCn1c(=O)c2c(C)c(CN3CCNC3=NC(=O)OC)sc2n(CC2CCO2)c1=O` (racemic) [Example 387, Methyl [1-{[3-(2-methoxyethyl)-5-methyl-1-(oxetan-2-ylmethyl)-2,4-dioxo-1,2,3,4-tetrahydrothieno[2,3-d]pyrimidin-6-yl]methyl}imidazolidin-2-ylidene]carbamate] was 7.02.
On the same count and under the same terms, under `COCCn1c(=O)c2c(C)c(CN3CCNC3=NC(=O)OC)sc2n(CC2CCCO2)c1=O` (racemic) [Example 390, Methyl [1-{[3-(2-methoxyethyl)-5-methyl-2,4-dioxo-1-(tetrahydrofuran-2-ylmethyl)-1,2,3,4-tetrahydrothieno[2,3-d]pyrimidin-6-yl]methyl}imidazolidin-2-ylidene]carbamate] stands 7.55; under `Cc1c(CN2CCNC(=O)C2=O)sc2c1c(=O)n(C(C)C)c(=O)n2CC1CCO1` (racemic) [Example 397, 6-[(2,3-Dioxopiperazin-1-yl)methyl]-3-isopropyl-5-methyl-1-(oxetan-2-ylmethyl)thieno[2,3-d]pyrimidine-2,4(1H,3H)-dione], 6.92.
Turning to `COCCn1c(=O)c2c(C)c(CN3CCNC(=O)C3=O)sc2n(CC2CCO2)c1=O` (racemic) [Example 400, 6-[(2,3-Dioxopiperazin-1-yl)methyl]-3-(2-methoxyethyl)-5-methyl-1-(oxetan-2-ylmethyl)thieno[2,3-d]pyrimidine-2,4(1H,3H)-dione], under setting [1], the negative logarithm of the IC50 (pIC50) is 6.49.
Still for that read-out and setting: under `Cc1c(CN2CCNC2=O)sc2c1c(=O)n(CC(C)(C)C)c(=O)n2CC1CCCO1` (racemic) [Example 406, 3-(2,2-Dimethylpropyl)-5-methyl-6-[(2-oxoimidazolidin-1-yl)methyl]-1-(tetrahydrofuran-2-ylmethyl)thieno[2,3-d]pyrimidine-2,4(1H,3H)-dione] stands 7.54; under `COCCn1c(=O)n(C(C)C(F)(F)F)c(=O)c2c(C)c(CN3CCNC3=O)sc21` (racemic) [Example 410, 1-(2-Methoxyethyl)-5-methyl-6-[(2-oxoimidazolidin-1-yl)methyl]-3-(1,1,1-trifluoropropan-2-yl)thieno[2,3-d]pyrimidine-2,4(1H,3H)-dione], 7.92; under `COC(C)Cn1c(=O)c2c(C)c(CN3CCNC3=O)sc2n(CCC(F)(F)F)c1=O` (racemic) [Example 412, 3-(2-Methoxypropyl)-5-methyl-6-[(2-oxoimidazolidin-1-yl)methyl]-1-(3,3,3-trifluoropropyl)thieno[2,3-d]pyrimidine-2,4(1H,3H)-dione], 8.27.
Still for that read-out and setting: under `CCn1c(=O)c2c(C)c(C(C)N3CCNC3=O)sc2n(CCC(F)(F)F)c1=O` (racemic) [Example 416, 3-Ethyl-5-methyl-6-[1-(2-oxoimidazolidin-1-yl)ethyl]-1-(3,3,3-trifluoropropyl)thieno[2,3-d]pyrimidine-2,4(1H,3H)-dione] stands 7.10; under `CCn1c(=O)c2c(C)c(Cn3nc[nH]c3=O)sc2n(CC2CCCO2)c1=O` (racemic) [Example 419, 3-Ethyl-5-methyl-6-[(5-oxo-4,5-dihydro-1H-1,2,4-triazol-1-yl)methyl]-1-(tetrahydrofuran-2-ylmethyl)thieno[2,3-d]pyrimidine-2,4(1H,3H)-dione], 6.89.
Same read-out and setting: the value for `Cc1c(Cn2nc[nH]c2=O)sc2c1c(=O)n(C(C)C)c(=O)n2CC1CCCO1` (racemic) [Example 424, 3-Isopropyl-5-methyl-6-[(5-oxo-4,5-dihydro-1H-1,2,4-triazol-1-yl)methyl]-1-(tetrahydrofuran-2-ylmethyl)thieno[2,3-d]pyrimidine-2,4(1H,3H)-dione] was 7.06; that for `Cc1c(Cn2nc[nH]c2=O)sc2c1c(=O)n(CC(C)(C)C)c(=O)n2CC1CCCO1` (racemic) [Example 429, 3-(2,2-Dimethylpropyl)-5-methyl-6-[(5-oxo-4,5-dihydro-1H-1,2,4-triazol-1-yl)methyl]-1-(tetrahydrofuran-2-ylmethyl)thieno[2,3-d]pyrimidine-2,4(1H,3H)-dione] was 7.12; that for `Cc1c(Cn2nc[nH]c2=O)sc2c1c(=O)n(CC(F)(F)F)c(=O)n2CC1CCCO1` (racemic) [Example 434, 5-Methyl-6-[(5-oxo-4,5-dihydro-H-1,2,4-triazol-1-yl)methyl]-1-(tetrahydrofuran-2-ylmethyl)-3-(2,2,2-trifluoroethyl)thieno[2,3-d]pyrimidine-2,4(1H,3H)-dione] was 7.09.
Take `Cc1c(Cn2nc[nH]c2=O)sc2c1c(=O)n(C(C)C(F)(F)F)c(=O)n2CCC(F)(F)F` (racemic) [Example 437, 5-Methyl-6-[(5-oxo-4,5-dihydro-1H-1,2,4-triazol-1-yl)methyl]-3-(1,1,1-trifluoropropan-2-yl)-1-(3,3,3-trifluoropropyl)thieno[2,3-d]pyrimidine-2,4(1H,3H)-dione]: the negative-log IC50 (pIC50) under setting [1] was 7.32.
Turning to `COCCn1c(=O)n(C(C)C(F)(F)F)c(=O)c2c(C)c(Cn3nc[nH]c3=O)sc21` (racemic) [Example 438, 1-(2-Methoxyethyl)-5-methyl-6-[(5-oxo-4,5-dihydro-1H-1,2,4-triazol-1-yl)methyl]-3-(1,1,1-trifluoropropan-2-yl)thieno[2,3-d]pyrimidine-2,4(1H,3H)-dione], the pIC50 was 6.82.
Turning to `COC(C)Cn1c(=O)c2c(C)c(Cn3nc[nH]c3=O)sc2n(CCC(F)(F)F)c1=O` (racemic) [Example 440, 3-(2-Methoxypropyl)-5-methyl-6-[(5-oxo-4,5-dihydro-1H-1,2,4-triazol-1-yl)methyl]-1-(3,3,3-trifluoropropyl)thieno[2,3-d]pyrimidine-2,4(1H,3H)-dione], under setting [1], the pIC50 is 7.64.
In the case of `Cc1c(CN2CCNC2=NC#N)sc2c1c(=O)n(CC(C)(C)C)c(=O)n2CC1CCCO1` (racemic) [Example 446, [1-{[3-(2,2-Dimethylpropyl)-5-methyl-2,4-dioxo-1-(tetrahydrofuran-2-ylmethyl)-1,2,3,4-tetrahydrothieno[2,3-d]pyrimidin-6-yl]methyl}imidazolidin-2-ylidene]cyanamide], under setting [1], the pIC50 was 7.72.
On to `Cc1c(CN2CCNC2=NC#N)sc2c1c(=O)n(C(C)C(F)(F)F)c(=O)n2CCC(F)(F)F` (racemic) [Example 451, [1-{[5-Methyl-2,4-dioxo-3-(1,1,1-trifluoropropan-2-yl)-1-(3,3,3-trifluoropropyl)-1,2,3,4-tetrahydrothieno[2,3-d]pyrimidin-6-yl]methyl}imidazolidin-2-ylidene]cyanamide], for which the pIC50 was 8.00.
On to `COCCn1c(=O)n(C(C)C(F)(F)F)c(=O)c2c(C)c(CN3CCNC3=NC#N)sc21` (racemic) [Example 452, [1-{[1-(2-Methoxyethyl)-5-methyl-2,4-dioxo-3-(1,1,1-trifluoropropan-2-yl)-1,2,3,4-tetrahydrothieno[2,3-d]pyrimidin-6-yl]methyl}imidazolidin-2-ylidene]cyanamide], for which, under setting [1], the pIC50 is 7.85.
On to `COC(C)Cn1c(=O)c2c(C)c(CN3CCNC3=NC#N)sc2n(CCC(F)(F)F)c1=O` (racemic) [Example 454, [1-{[3-(2-Methoxypropyl)-5-methyl-2,4-dioxo-1-(3,3,3-trifluoropropyl)-1,2,3,4-tetrahydrothieno[2,3-d]pyrimidin-6-yl]methyl}imidazolidin-2-ylidene]cyanamide], for which the pIC50 under setting [1] is 8.21.
On the same count and under the same terms, under `COC(=O)N=C1NCCN1Cc1sc2c(c1C)c(=O)n(CC(C)(C)C)c(=O)n2CC1CCCO1` (racemic) [Example 463, Methyl [1-{[3-(2,2-dimethylpropyl)-5-methyl-2,4-dioxo-1-(tetrahydrofuran-2-ylmethyl)-1,2,3,4-tetrahydrothieno[2,3-d]pyrimidin-6-yl]methyl}imidazolidin-2-ylidene]carbamate] stands 8.00.
